Measurements: article PMC7819857, “Identification of Inhibitors of Integrin Cytoplasmic Domain Interactions With Syk” (Frontiers in Immunology, 2021)

Legend:
[1] = system: THP-1 cells; experiment: THP-1 cell adhesion to CS-1; format: cell-based, human; conditions: cells loaded by glycerol shock
Protocol: Supplemental Figure 6. Effects of ceftazidime on THP-1 adhesion to CS-1. Cells were loaded with ceftazidime by glycerol shock. After loading, cells were washed with media and loaded with calcein-AM. CS-1–conjugated bovine serum albumin was immobilized in 96-well plates (5 ug/ml), and adhesion assays were performed as previously described (1). Data are expressed as average fluorescence ± standard deviation from triplicates. One of two representative experiments is shown. The green line represents cell adhesion in the absence of ceftazidime.

[2] = system: MCP-1 gene expression in THP-1 cells; experiment: Quantitative PCR of adhesion-dependent MCP-1 expression in THP-1 cells; format: cell-based, human; conditions: 100 µM loaded cells, plated on CS-1, 4 h, qPCR
Protocol: THP-1 cells (2 × 10^6 per treatment group) that were glycerol loaded with ceftazidime (100 µM) or vehicle control (as described above) were plated on CS-1 peptide (10 µg/ml; 6-well plates) in serum-free RPMI-1640. Control cells were also kept in suspension. Plated and suspension cells were incubated for 4 h at 37°C. After incubation, the medium was removed, and RNA was isolated from cells with a Qiagen RNA extraction kit. After cDNA synthesis, quantitative real-time PCR was used to determine the relative gene expression levels of IL-1β and monocyte chemoattractant protein (MCP)-1 in THP-1 cells adhered to CS-1 in the presence of vehicle or ceftazidime relative to that of cells in suspension. The cycle threshold (Ct) results generated were analyzed according to the comparative Ct method (2^-ΔΔCt), where ΔCt is the difference between the CT value of target versus GAPDH control, and ΔΔCt is the difference between the ΔCt values of a given treated adherent cell sample and that of cells in suspension. Statistical differences between the two treatment groups for each target were determined by a two-tailed, unpaired Student t test using GraphPad Prism 7.04 statistical software.
Figure 6 Selective inhibition of integrin signaling by ceftazidime. […] Data are expressed as mean ± range from duplicate determinations. […] Kinase activity is expressed as percent of maximum signal. […]

CC(C)(O/N=C(\C(=O)N[C@@H]1C(=O)N2C(C(=O)[O-])=C(C[n+]3ccccc3)CS[C@H]12)c1csc(N)n1)C(=O)O [ceftazidime]
effect on THP-1 cell adhesion to CS-1 [1]: not due to ceftazidime inhibition of THP-1 cell adhesion to CS-1
adhesion-dependent induction of the expression of MCP-1 [2]: significantly inhibited
